Data from ChEMBL document CHEMBL1130558, “Synthesis and preliminary structure-activity relationships of 1-[(3-fluoro-4-pyridinyl)amino]-3-methyl-1H-indol-5-yl methyl carbamate (P10358), a novel acetylcholinesterase inhibitor” (Bioorg Med Chem Lett, 1997).
The source made the active and inactive calls.

What was measured:
[1] = target: T1, Cholinesterase (Homo sapiens, UniProt P06276); assay: In vitro inhibition of human serum Butyrylcholinesterase using butyrylthiocholine as substrate; 0.69-1.2
[2] = tested on: Mus musculus; assay: Compound was evaluated in vivo for the significant activity at all doses in reversing the Scopolamine dementia dark avoidance (SDDA) in mice; 2/3; assay type: functional
[3] = tested on: Mus musculus; assay: The percent of animals in the scopolamine-drug group with latencies greater than the cutoff time at subcutaneous dose of 1.0 mg/kg; assay type: functional
[4] = target: T2, Acetylcholinesterase (Rattus norvegicus) (UniProt P37136); assay: Tested for percent ex vivo inhibition of rat striatal acetylcholinesterase at peroral dose of 20 mg/kg at 24 hr; assay type: organism-based; set-up: dose 20 mg/kg
T2 sequence (whole entry): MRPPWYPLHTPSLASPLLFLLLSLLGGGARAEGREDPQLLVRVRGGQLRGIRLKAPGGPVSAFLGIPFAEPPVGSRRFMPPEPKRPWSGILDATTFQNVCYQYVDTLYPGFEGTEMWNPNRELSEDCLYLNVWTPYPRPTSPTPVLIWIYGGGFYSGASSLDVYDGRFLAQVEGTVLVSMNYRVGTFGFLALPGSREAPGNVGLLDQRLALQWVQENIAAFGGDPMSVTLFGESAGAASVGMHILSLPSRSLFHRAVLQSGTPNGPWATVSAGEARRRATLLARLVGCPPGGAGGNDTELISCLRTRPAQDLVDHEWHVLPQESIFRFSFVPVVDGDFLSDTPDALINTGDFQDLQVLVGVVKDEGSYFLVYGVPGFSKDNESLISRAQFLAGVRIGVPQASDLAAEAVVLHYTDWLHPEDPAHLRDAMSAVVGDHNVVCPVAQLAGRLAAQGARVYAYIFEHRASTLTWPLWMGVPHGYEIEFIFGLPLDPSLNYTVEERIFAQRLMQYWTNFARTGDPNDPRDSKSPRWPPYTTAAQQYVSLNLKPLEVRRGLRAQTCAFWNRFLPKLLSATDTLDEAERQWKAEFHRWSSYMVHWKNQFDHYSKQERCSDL

[5] = target: T3, Acetylcholinesterase (Rattus norvegicus, UniProt P37136); assay: Compound was evaluated in vitro in rats for the inhibition of brain (striatal) acetylcholinesterase (AChEI) using acetylthiocholine as substrate; 3.3-4.8
T3 sequence (P37136 whole entry): T2 sequence (whole entry)

[6] = target: T2, Acetylcholinesterase (Rattus norvegicus); assay: Tested for percent ex vivo inhibition of rat striatal acetylcholinesterase at peroral dose of 20 mg/kg at 4 hr; assay type: organism-based; set-up: dose 20 mg/kg
[7] = tested on: Mus musculus; assay: The percent of animals in the scopolamine-drug group with latencies greater than the cutoff time at subcutaneous dose of 3.0 mg/kg; assay type: functional
[8] = target: T2, Acetylcholinesterase (Rattus norvegicus); assay: Tested for percent ex vivo inhibition of rat striatal acetylcholinesterase at peroral dose of 20 mg/kg at 1 hr; assay type: organism-based; set-up: dose 20 mg/kg
[9] = tested on: Mus musculus; assay: The percent of animals in the scopolamine-drug group with latencies greater than the cutoff time at subcutaneous dose of 0.63 mg/kg; assay type: functional
[10] = target: T3, Acetylcholinesterase; assay: Compound was evaluated in vitro in rats for the inhibition of brain (striatal) acetylcholinesterase (AChEI) using acetylthiocholine as substrate; 0.024-0.14
[11] = target: T1, Cholinesterase; assay: In vitro inhibition of human serum Butyrylcholinesterase using butyrylthiocholine as substrate; 0.023-0.041
[12] = tested on: Mus musculus; assay: Compound was evaluated in vivo for the significant activity at all doses in reversing the Scopolamine dementia dark avoidance (SDDA) in mice; 1/6; assay type: functional
[13] = tested on: Mus musculus; assay: The percent of animals in the scopolamine-drug group with latencies greater than the cutoff time at subcutaneous dose of 0.01 mg/kg; assay type: functional
[14] = target: T1, Cholinesterase; assay: In vitro inhibition of human serum Butyrylcholinesterase using butyrylthiocholine as substrate; 0.00029-0.001
[15] = tested on: Mus musculus; assay: The percent of animals in the scopolamine-drug group with latencies greater than the cutoff time at subcutaneous dose of 0.1 mg/kg; assay type: functional
[16] = tested on: Mus musculus; assay: The percent of animals in the scopolamine-drug group with latencies greater than the cutoff time at subcutaneous dose of 0.001 mg/kg; assay type: functional
[17] = tested on: Mus musculus; assay: Compound evaluated in vivo for reversing the Scopolamine dementia dark avoidance (SDDA) in mice expressed number of active dosages versus the total number of dosages evaluated; 5/7 and active; assay type: functional, organism-based
[18] = tested on: Mus musculus; assay: The percent of animals in the scopolamine-drug group with latencies greater than the cutoff time at subcutaneous dose of 0.003 mg/kg; assay type: functional
[19] = target: T3, Acetylcholinesterase; assay: Compound was evaluated in vitro in rats for the inhibition of brain (striatal) acetylcholinesterase (AChEI) using acetylthiocholine as substrate; 0.0026-0.031
[20] = target: T2, Acetylcholinesterase (Rattus norvegicus); assay: Compound was evaluated ex vivo for the inhibition of acetylcholinesterase (AChEI) one hour after oral administration
[21] = tested on: Mus musculus; assay: The percent of animals in the scopolamine-drug group with latencies greater than the cutoff time at subcutaneous dose of 0.04 mg/kg;; assay type: functional
[22] = target: T2, Acetylcholinesterase (Rattus norvegicus); assay: Tested for percent ex vivo inhibition of rat striatal acetylcholinesterase at peroral dose of 20 mg/kg at 6 hr; assay type: organism-based; set-up: dose 20 mg/kg
[23] = tested on: Mus musculus; assay: The percent of animals in the scopolamine-drug group with latencies greater than the cutoff time at subcutaneous dose of 5 mg/kg; assay type: functional
[24] = tested on: Mus musculus; assay: Compound evaluated in vivo for reversing the Scopolamine dementia dark avoidance (SDDA) in mice expressed number of active dosages versus the total number of dosages evaluated; 4/9 and active; assay type: functional, organism-based
[25] = target: T3, Acetylcholinesterase; assay: Compound was evaluated in vitro in rats for the inhibition of brain (striatal) acetylcholinesterase (AChEI) using acetylthiocholine as substrate; 0.014-0.14
[26] = tested on: Mus musculus; assay: The percent of animals in the scopolamine-drug group with latencies greater than the cutoff time at subcutaneous dose of 1.25 mg/kg; assay type: functional
[27] = target: T1, Cholinesterase; assay: In vitro inhibition of human serum Butyrylcholinesterase using butyrylthiocholine as substrate; 0.01-0.069
[28] = tested on: Mus musculus; assay: The percent of animals in the scopolamine-drug group with latencies greater than the cutoff time at subcutaneous dose of 2.5 mg/kg; assay type: functional
[29] = target: T4, Acetylcholine receptor subunit delta (Torpedo californica) (UniProt P02718); assay: In vitro inhibition of Nicotinic acetylcholine receptor stimulation; NI=No inhibition
T4 sequence (whole entry): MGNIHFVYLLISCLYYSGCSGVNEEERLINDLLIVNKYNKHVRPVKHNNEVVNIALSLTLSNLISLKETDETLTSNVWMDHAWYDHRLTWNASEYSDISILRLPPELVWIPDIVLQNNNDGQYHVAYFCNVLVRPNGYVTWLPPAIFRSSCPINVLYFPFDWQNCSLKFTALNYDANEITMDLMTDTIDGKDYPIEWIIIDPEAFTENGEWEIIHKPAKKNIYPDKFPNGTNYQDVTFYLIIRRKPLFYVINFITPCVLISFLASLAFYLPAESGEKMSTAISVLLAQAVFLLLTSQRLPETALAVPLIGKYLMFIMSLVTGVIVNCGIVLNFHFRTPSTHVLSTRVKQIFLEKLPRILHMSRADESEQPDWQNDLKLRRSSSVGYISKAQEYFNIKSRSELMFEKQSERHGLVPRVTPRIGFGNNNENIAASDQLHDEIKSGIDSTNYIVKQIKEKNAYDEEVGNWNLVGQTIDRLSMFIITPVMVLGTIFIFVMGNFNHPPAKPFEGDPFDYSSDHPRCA

[30] = target: T5, Muscarinic acetylcholine receptor M4 (Homo sapiens) (UniProt P08173); assay: In vitro inhibition of muscarinic receptor stimulation; NI=No inhibition
T5 sequence (whole entry): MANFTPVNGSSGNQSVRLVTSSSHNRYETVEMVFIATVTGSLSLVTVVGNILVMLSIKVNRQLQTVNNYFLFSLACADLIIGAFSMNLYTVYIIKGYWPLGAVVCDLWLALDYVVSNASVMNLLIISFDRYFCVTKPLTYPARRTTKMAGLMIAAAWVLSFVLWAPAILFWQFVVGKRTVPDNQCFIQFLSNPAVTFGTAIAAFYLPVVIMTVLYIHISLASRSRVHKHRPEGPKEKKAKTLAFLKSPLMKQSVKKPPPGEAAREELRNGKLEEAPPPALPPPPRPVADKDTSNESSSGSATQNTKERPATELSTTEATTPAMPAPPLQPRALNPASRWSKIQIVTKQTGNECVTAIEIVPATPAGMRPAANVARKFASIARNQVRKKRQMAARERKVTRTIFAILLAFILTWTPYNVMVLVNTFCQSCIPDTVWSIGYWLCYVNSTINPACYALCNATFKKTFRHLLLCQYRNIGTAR

[31] = target: T1, Cholinesterase; assay: In vitro inhibition of human serum Butyrylcholinesterase using butyrylthiocholine as substrate; 0.15-0.22
[32] = target: T2, Acetylcholinesterase (Rattus norvegicus); assay: Tested for percent ex vivo inhibition of rat striatal acetylcholinesterase at peroral dose of 10 mg/kg at 24 hr; assay type: organism-based; set-up: dose 10 mg/kg
[33] = tested on: Mus musculus; assay: The percent of animals in the scopolamine-drug group with latencies greater than the cutoff time at subcutaneous dose of 0.3 mg/kg; assay type: functional
[34] = tested on: Mus musculus; assay: Compound evaluated in vivo for reversing the Scopolamine dementia dark avoidance (SDDA) in mice expressed number of active dosages versus the total number of dosages evaluated; 3/3 and active; assay type: functional, organism-based
[35] = target: T2, Acetylcholinesterase (Rattus norvegicus); assay: Tested for percent ex vivo inhibition of rat striatal acetylcholinesterase at peroral dose of 10 mg/kg at 1 hr; assay type: organism-based; set-up: dose 10 mg/kg
[36] = target: T2, Acetylcholinesterase (Rattus norvegicus); assay: Dose required to exhibit robust maximal effect for acetylcholinesterase (AChE) inhibition following intraperitoneal administration
[37] = target: T2, Acetylcholinesterase (Rattus norvegicus); assay: Tested for percent ex vivo inhibition of rat striatal acetylcholinesterase at peroral dose of 10 mg/kg at 6 hr; assay type: organism-based; set-up: dose 10 mg/kg
[38] = target: T2, Acetylcholinesterase (Rattus norvegicus); assay: Tested for percent ex vivo inhibition of rat striatal acetylcholinesterase at peroral dose of 10 mg/kg at 4 hr; assay type: organism-based; set-up: dose 10 mg/kg
[39] = tested on: Mus musculus; assay: The percent of animals in the scopolamine-drug group with latencies greater than the cutoff time at subcutaneous dose of 0.03 mg/kg; assay type: functional
[40] = target: T3, Acetylcholinesterase; assay: Compound was evaluated in vitro in rats for the inhibition of brain (striatal) acetylcholinesterase (AChEI) using acetylthiocholine as substrate; 0.084-0.19
[41] = target: T3, Acetylcholinesterase; assay: Compound was evaluated in vitro in rats for the inhibition of brain (striatal) acetylcholinesterase (AChEI) using acetylthiocholine as substrate; 21-88

T1 sequence (P06276 whole entry): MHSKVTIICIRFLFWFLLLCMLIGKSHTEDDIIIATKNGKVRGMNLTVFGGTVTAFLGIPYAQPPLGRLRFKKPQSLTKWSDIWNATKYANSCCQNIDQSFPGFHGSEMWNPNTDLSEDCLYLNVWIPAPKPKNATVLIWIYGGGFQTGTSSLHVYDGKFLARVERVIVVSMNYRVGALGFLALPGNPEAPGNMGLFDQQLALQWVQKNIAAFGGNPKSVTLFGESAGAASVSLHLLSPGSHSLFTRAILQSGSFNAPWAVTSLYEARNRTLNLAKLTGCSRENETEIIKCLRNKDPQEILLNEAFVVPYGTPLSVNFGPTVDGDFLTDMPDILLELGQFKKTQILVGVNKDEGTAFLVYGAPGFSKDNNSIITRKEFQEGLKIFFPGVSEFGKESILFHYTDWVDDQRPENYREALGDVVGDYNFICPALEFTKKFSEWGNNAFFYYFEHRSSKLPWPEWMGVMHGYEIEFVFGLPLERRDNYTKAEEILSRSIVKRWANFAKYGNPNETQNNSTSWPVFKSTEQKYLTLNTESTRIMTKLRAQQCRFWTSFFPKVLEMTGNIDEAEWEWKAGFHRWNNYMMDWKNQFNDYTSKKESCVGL

For `CCCCNC(=O)Oc1ccc2c(c1)c(C)cn2N(CCC)c1ccncc1F`, which IC50 [1] is on record?
Its IC50 is 920 nM.

What about the Activity [2] of the same molecule?
The Activity was 2.

What about the Response [3] of the same molecule?
The Response was 33%.

What about the inhibition [4] of the same molecule?
The inhibition was 11%.

What about the IC50 [5] of the same molecule?
The IC50 was 4000 nM.

And the inhibition [6]?
Its inhibition is 26%.

And the Response [7]?
The Response was 33%.

Which inhibition [8] does the source give for `CCCN(c1ccncc1F)n1cc(C)c2cc(OC(=O)NC)ccc21` here?
The inhibition was 50%.

What about the Response [9] of the same molecule?
Its Response is 27%.

And the IC50 [10]?
Its IC50 is 58 nM.

What about the inhibition [4] of the same molecule?
Its inhibition is 9%.

What about the inhibition [6] of the same molecule?
Its inhibition is 41%.

What about the IC50 [11] of the same molecule?
The IC50 was 31 nM.

And the Activity [12]?
Its Activity is 1.

`CCCCCCCNC(=O)Oc1ccc2c(c1)[C@]1(C)CCN(C)[C@@H]1N2C` [EPTASTIGMINE] was tested. Which Response [13] did it give?
Its Response is 45%.

What about the IC50 [14] of the same molecule?
The IC50 was 0.69 nM.

What about the Response [3] of the same molecule?
Its Response is 20%.

What about the Response [15] of the same molecule?
The Response was 33%.

What about the Response [16] of the same molecule?
Its Response is 40%.

And the Activity [17]?
Its Activity is “Active”.

And the Response [18]?
The Response was 53%.

What about the IC50 [19] of the same molecule?
Its IC50 is 9 nM.

And the ED50 [20]?
The ED50 was 10.1 mg/kg.

Which results are given for `CCCN(c1ccncc1F)n1cc(C)c2cc(OC(=O)NCc3ccccc3)ccc21`?
inhibition [8]: 15%; Response [21]: 20%; inhibition [22]: 6%; inhibition [4]: 2%; Response [23]: 20%; Activity [24]: Active; IC50 [25]: 43 nM; Response [26]: 20%; inhibition [6]: 12%; IC50 [27]: 27 nM; Response [28]: 20%

Which results are given for `CCCN(c1ccncc1)n1ccc2ccccc21`?
Activity [29]: inactive; Activity [30]: inactive

Which results are given for `CNC(=O)Oc1ccc2c(c1)c(C)cn2Nc1ccncc1F`?
inhibition [8]: 82%; IC50 [31]: 190 nM; inhibition [32]: 0%; Response [33]: 28%; inhibition [22]: 82%; Activity [34]: Active; inhibition [35]: 67%; inhibition [4]: 20%; DOSE [36]: 0.625 mg/kg; Response [15]: 21%; inhibition [37]: 3%; inhibition [38]: 56%; Response [39]: 40%; inhibition [6]: 84%; IC50 [40]: 130 nM; ED50 [20]: 8.3 mg/kg

For `CCCCCCCNC(=O)Oc1ccc2c(c1)c(C)cn2N(CCC)c1ccncc1F`, which IC50 [41] is on record?
Its IC50 is 43000 nM.
